Data as given in the NIST ThermoML archive (doi:10.1016/j.fluid.2008.10.008).
Values joined by “and” are separate entries in the source; they are usually repeats but may differ in a detail not shown here. Equal values may be shown once. ± gives the expanded uncertainty stated by the source.

Test: activity coefficient (dimensionless); of the first substance listed, at infinite dilution; xn = mol fraction of the nth substance listed
Conditions: 101 kPa, Liquid, Chromatography, x1 = 0

SMILES | activity coefficient (328.15 K) | activity coefficient (333.15 K) | activity coefficient (338.15 K) | activity coefficient (343.15 K)
C=CCCC [1-pentene] + CCCC[n+]1ccc(C)cc1.Cc1ccc(S(=O)(=O)[O-])cc1 | 16.8 and 15.3 | 16.1 and 14.8 | 15.3 and 15.5 | 15.7 and 14.2
C=CCCCCC [1-heptene] + CCCC[n+]1ccc(C)cc1.Cc1ccc(S(=O)(=O)[O-])cc1 | 28.7 and 29.2 | 29.5 and 28.2 | 27.2 and 27.9 | 28 and 27.5
C#CCCC [1-pentyne] + CCCC[n+]1ccc(C)cc1.Cc1ccc(S(=O)(=O)[O-])cc1 | 3.05 and 3.09 | 3.37 and 3.06 | 3.36 and 3.2 | 3.38 and 3.41
CCO [ethanol] + CCCC[n+]1ccc(C)cc1.Cc1ccc(S(=O)(=O)[O-])cc1 | 0.905 and 0.893 | 0.895 and 0.881 | 0.88 and 0.87 | 0.871 and 0.863
C1CCCC1 [cyclopentane] + CCCC[n+]1ccc(C)cc1.Cc1ccc(S(=O)(=O)[O-])cc1 | 13.6 and 12.5 | 12.4 and 12.8 | 11.7 and 12 | 11.9 and 11.7
C=CCCCC [hex-1-ene] + CCCC[n+]1ccc(C)cc1.Cc1ccc(S(=O)(=O)[O-])cc1 | 21.2 and 21.1 | 20.7 and 20.1 | 20.3 and 19.5 | 20 and 20.1
CO [methanol] + CCCC[n+]1ccc(C)cc1.Cc1ccc(S(=O)(=O)[O-])cc1 | 0.555 and 0.542 | 0.545 and 0.542 | 0.541 and 0.536 | 0.548 and 0.527
C1CCCCCCC1 [cyclooctane] + CCCC[n+]1ccc(C)cc1.Cc1ccc(S(=O)(=O)[O-])cc1 | 26.2 and 28.4 | 25.2 and 25 | 23.7 and 24.6 | 23.6 and 24.5
c1ccccc1 [benzene] + CCCC[n+]1ccc(C)cc1.Cc1ccc(S(=O)(=O)[O-])cc1 | 4.01 ± 0.18 | 3.92 and 4 | 3.97 and 3.95 | 3.94 and 3.97
CCCCC [pentane] + CCCC[n+]1ccc(C)cc1.Cc1ccc(S(=O)(=O)[O-])cc1 | 27.6 and 28.7 | 27.5 and 27.8 | 27.7 and 27.8 | 27.3 and 27.4
C1CCCCC1 [cyclohexane] + CCCC[n+]1ccc(C)cc1.Cc1ccc(S(=O)(=O)[O-])cc1 | 18.6 and 20.6 | 18 and 18.1 | 17.5 ± 0.8 | 16.9 and 17
C#CCCCCC [1-heptyne] + CCCC[n+]1ccc(C)cc1.Cc1ccc(S(=O)(=O)[O-])cc1 | 5.76 and 5.88 | 6.03 and 5.9 | 6.01 and 5.98 | 6.14 and 6
C#CCCCCCC [1-octyne] + CCCC[n+]1ccc(C)cc1.Cc1ccc(S(=O)(=O)[O-])cc1 | 8.01 and 8.11 | 8.45 and 8.13 | 8.27 and 8.18 | 8.56 and 8.3
C#CCCCC [1-hexyne] + CCCC[n+]1ccc(C)cc1.Cc1ccc(S(=O)(=O)[O-])cc1 | 4.25 and 4.19 | 4.43 and 4.26 | 4.37 and 4.61 | 4.8 and 4.36
CCCCCCC [heptane] + CCCC[n+]1ccc(C)cc1.Cc1ccc(S(=O)(=O)[O-])cc1 | 53 and 55 | 51.8 and 51 | 50.6 and 50.4 | 49.3 and 49.5
CCCCCCCC [octane] + CCCC[n+]1ccc(C)cc1.Cc1ccc(S(=O)(=O)[O-])cc1 | 71.6 and 75.8 | 71.3 and 70.6 | 67.8 and 68.4 | 68.7 and 68.9
CCCCCC [hexane] + CCCC[n+]1ccc(C)cc1.Cc1ccc(S(=O)(=O)[O-])cc1 | 37.3 and 38.9 | 37.2 ± 1.7 | 36 ± 1.7 | 36.9 and 37.1
C1CCCCCC1 [cycloheptane] + CCCC[n+]1ccc(C)cc1.Cc1ccc(S(=O)(=O)[O-])cc1 | 21.2 and 23.4 | 20.8 ± 1 | 20 ± 0.9 | 19.8 and 19.9
C=CCCCCCC [oct-1-ene] + CCCC[n+]1ccc(C)cc1.Cc1ccc(S(=O)(=O)[O-])cc1 | 39.7 and 40.6 | 39.7 and 39.2 | 38.7 and 38.9 | 37.8 and 38
